Assay results from US8980954B2, “Substituted cis- and trans-stilbenes as therapeutic agents” (STC.UNM, priority 2006, dated 2015).

Key:
NF-κB [1] = test: Inhibition of the TNFα-induced activation of NF-κB, 293T/NF-κB-luc luciferase reporter cell assay; type: cell-based, human; conditions: 7 hours; for activity as inhibitor of the TNFα-induced activation of NF-κB in the preliminary screen: screened at 15 μM, FIGS. 1-5; for IC50: Homo sapiens, HEK-293T, 293T/NF-κB-luc cells, TNFα 20 ng/ml, triplicate, read-out: IC50 for inhibition of the TNFα-induced activation of NFκB
Protocol: The cells were maintained in Dulbecco's Modified Eagle's Medium (DMEM—high glucose containing 4 mM glutamine) supplemented with 10% fetal bovine serum (FBS), 1 mM sodium pyruvate, 100 units/ml penicillin, 100 μg/ml streptomycin and 100 μg/ml hygromycin (Gibco/Invitrogen, Carlsbad, Calif.) to maintain cell selection. […] The following day cells were fed fresh media 1 hour prior to treatment. […] Plate wells were gently washed with phosphate buffered saline, pH 7.4, and lysed with 1x passive lysis buffer (Promega, Madison, Wis.). The subsequent lysates were analyzed with the Luciferase Assay System (Promega) utilizing a TD-20/20 luminometer (Turner Designs, Sunnyvale, Calif.). The firefly luciferase relative light units were normalized to protein (mg/ml) with BCA™ Protein Assay Kit (Pierce, Rockford, Ill.) and standardized to percent of control (TNFα control).

AP-1 = test: Inhibition of the TPA-induced activation of AP-1, 293T/AP-1-luc luciferase reporter cell assay; type: cell-based, human; conditions: 293T/AP-1-luc cells, TPA 10 ng/ml, 24 hours; for IC50: Homo sapiens
Protocol: An AP-1 reporter stable cell line derived from human 293T embryonic kidney cells transfected with a luciferase reporter construct containing three AP-1 binding sites in the promoter (293T/AP-1-luc, Panomics, Inc., Redwood City, Calif.) was grown in a humidified atmosphere at 37° C. in 5% CO2/95% air. The cells were maintained in Dulbecco's Modified Eagle's Medium (DMEM—high glucose containing 4 mM glutamine) supplemented with 10% fetal bovine serum (FBS), 1 mM sodium pyruvate, 100 units/ml penicillin, 100 μg/ml streptomycin and 100 μg/ml hygromycin (Gibco/Invitrogen, Carlsbad, Calif.) to maintain cell selection. One day prior to treatment, the 293T/AP-1-luc cells were plated into 24-well cell culture plates (Costar, Cambridge, Ma.) in the above media without hygromycin. The following day, the cells, which were at approximately 60% confluency, were fed fresh media with or without TPA, 10 ng/ml, (Calbiochem) and immediately treated with curcumin or analog prepared in DMSO stock solutions. The cells were placed again in a humidified atmosphere at 37° C. in 5% CO2/95% air for 24 hours. Plate wells were gently washed with phosphate buffered saline, pH 7.4, and lysed with 1x passive lysis buffer (Promega, Madison, Wis.). The subsequent lysates were analyzed with the Luciferase Assay System (Promega) utilizing a TD-20/20 luminometer (Turner Designs, Sunnyvale, Calif.). The firefly luciferase relative light units were normalized to protein (mg/ml) with BCA™ Protein Assay Kit (Pierce, Rockford, Ill.) and standardized to percent of control (TPA control).

[2] = TRAP assay (total radical-trapping anti-oxidant parameter)
Source text: (§1) The total radical-trapping anti-oxidant parameter assay (TRAP assay) measures the ability of an analog to react with the pre-formed radical monocation of 2,2′-azinobis-(3-ethylbenzothiazoline-6-sulfonic acid) (ABTS-^+). The ferric reducing/anti-oxidant power assay (FRAP assay) measures the ability of an analog to reduce a ferric tripyridyltriazine complex.
(§2) In both colorimetric assays, the vitamin E analog Trolox was used as a control.
(§3) The anti-oxidant activities of certain stilbene analogs according to the present invention were determined using two standard assays. See, Schlesier, et al., Free Rad Res. 2002;36:177-187. The total radical-trapping anti-oxidant parameter assay (TRAP assay) measures the ability of an analog to react with the pre-formed radical monocation of 2,2′-azinobis-(3-ethylbenzothiazoline-6-sulfonic acid) (ABTS^+). See, Re, et al., Free Rad Biol Med, 26:1231-1237 (1999). ABTS was reacted with potassium persulfate in the dark, overnight, to generate the colored ABTS^+ radical cation, which has an absorption maximum at 734 nm. The activities of curcumin and analogs were determined by their abilities to quench the color of the radical cation. The ferric reducing/anti-oxidant power assay (FRAP assay) measures the ability of an analog to reduce a ferric tripyridyltriazine complex. See, Benzie and Strain, Meth Enzymol, 299:15-27 (1999). The ferric complex of 2,4,6-tripyridyl-s-triazine was prepared at acidic pH, and the anti-oxidant activities of curcumin and analogs were determined by their abilities to reduce the ferric complex to the ferrous complex, monitored by formation of the ferrous complex at 593 nm. In both colorimetric assays, the vitamin E analog Trolox was used as a control.

[3] = FRAP assay (ferric reducing/anti-oxidant power)
Source text: as §1, §2
as §3, with “ABTS was reacted with potassium persulfate in the dark, overnight, to generate the colored ABTS^+ radical cation, which has an absorption maximum at 734 nm.” left out, “The ferric reducing/anti-oxidant power assay (FRAP assay) measures the ability of an analog to reduce a ferric tripyridyltriazine complex. See, Benzie and Strain, Meth Enzymol, 299:15-27 (1999).” left out, “In both colorimetric assays, the vitamin E analog Trolox was used as a control.” left out

COX-2 mRNA = test: Inhibition of LPS-induced expression of COX-2 mRNA in BV-2 microglial cells (qRT-PCR); type: cell-based, mouse; conditions: BV-2 cells, LPS 0.2 μg/ml, 24 hours; for inhibition of LPS-induced COX-2 mRNA compared with resveratrol: 0.15 μM
NF-κB [4] = conditions: cited from earlier work

| IC50 (AP-1) [nM] | IC50 (NF-κB [1]) [nM] | Compound | activity as inhibitor of the TNFα-induced activation of NF-κB in the preliminary screen (NF-κB [1]) | other results |
| --- | --- | --- | --- | --- |
| – | – | COc1ccc(/C=C/c2ccccc2)cc1O [4s, (E)-3-Hydroxy-4-methoxystilbene] | considerably more active than resveratrol | – |
| 2100 ± 400 | – | COc1ccc(/C=C/c2ccccn2)cc1 | – | – |
| 700 ± 40 | 600 ± 100 | COc1ccc(/C=C/c2cccc(OC)c2)cc1 [6r, (E)-3,4′-Dimethoxystilbene] | especially active | – |
| – | – | COc1ccc(/C=C/c2ccc(OC)cc2)cc1 [6b, (E)-4,4′-Dimethoxystilbene] | retained very little activity | – |
| 1600 ± 600 | – | Cc1ccc(/C=C/c2ccccc2)cc1 [4d, (E)-4-Methylstilbene] | – | – |
| 800 ± 100 | – | CCOc1ccc(/C=C/c2ccccc2)cc1 [4k, (E)-4-Ethoxystilbene] | – | – |
| – | 1500 ± 30 | COc1ccc(/C=C/c2ccccc2Cl)cc1 [6j, (E)-2-Chloro-4′-methoxystilbene] | – | – |
| – | – | COc1ccc(/C=C/c2ccccc2)c(OC)c1 [4u, (E)-2,4-Dimethoxystilbene] | especially active | – |
| – | 600 ± 400 | COc1ccc(/C=C/c2ccc(O)c(O)c2)cc1 [6x, (E)-3,4-Dihydroxy-4′-methoxystilbene] | considerably more active than resveratrol | – |
| 1000 ± 120 | 800 ± 200 | COc1ccc(/C=C/c2cccc(C)c2)cc1 [6i, (E)-4′-Methoxy-3-methylstilbene] | – | – |
| 1100 ± 100 | 150 | CN(C)c1ccc(/C=C/c2ccccc2)cc1 [4cc, (E)-4-N,N-Dimethylaminostilbene] | – | anti-oxidant activity in the TRAP assay [2]: exhibits anti-oxidant activity; anti-oxidant activity (TRAP or FRAP assay, not told apart) [2]: retained anti-oxidant activity; anti-oxidant activity in the FRAP assay [3]: exhibits anti-oxidant activity; inhibition of LPS-induced COX-2 mRNA compared with resveratrol (COX-2 mRNA): almost as effective as 4 μM resveratrol |
| 1300 ± 30 | – | COc1ccc(/C=C/c2ccccc2)cc1 [4b, (E)-4-Methoxystilbene] | especially active | – |
| 800 ± 30 | 900 ± 100 | COc1ccc(/C=C/c2ccc(C)cc2)cc1 [6d, (E)-4′-Methoxy-4-methylstilbene] | – | – |
| 800 ± 100 | 150 | COc1ccc(/C=C/c2ccccc2F)cc1 [6p, (E)-2-Fluoro-4′-methoxystilbene] | – | anti-oxidant activity (TRAP or FRAP assay, not told apart) [2]: does not exhibit anti-oxidant activity; inhibition of LPS-induced COX-2 mRNA compared with resveratrol (COX-2 mRNA): almost as effective as 4 μM resveratrol |
| 800 ± 150 | 1000 ± 100 | COc1ccc(/C=C/c2cccc(Cl)c2)cc1 [6h, (E)-3-Chloro-4′-methoxystilbene] | – | – |
| – | – | COc1ccc(/C=C/c2cccc(O)c2O)cc1 [6cc, (E)-2,3-Dihydroxy-4′-methoxystilbene] | considerably more active than resveratrol | – |
| – | – | C(=Cc1ccccc1)c1ccccc1 [stilbene] | – | inhibition of TNF-induced activation of NF-κB (literature) (NF-κB [4]): inactive |
| – | – | COc1cccc(/C=C/c2ccccc2)c1OC [4o, (E)-2,3-Dimethoxystilbene] | retained very little activity | – |
| 500 ± 100 | – | COc1ccc(/C=C/c2cccc(F)c2)cc1 [6n, (E)-3-Fluoro-4′-methoxystilbene] | – | – |
| 2400 ± 700 | – | COc1ccc(/C=C/c2cccc(OC)c2OC)cc1 [6o, (E)-2,3,4′-Trimethoxystilbene] | especially active | – |

| Compound | IC50 (AP-1) [nM] | IC50 (NF-κB [1]) [nM] | activity as inhibitor of the TNFα-induced activation of NF-κB in the preliminary screen (NF-κB [1]) | other results |
| --- | --- | --- | --- | --- |
| Oc1ccc(/C=C/c2cc(O)cc(O)c2)cc1 [resveratrol, 3,4′,5-trihydroxystilbene, reference compound] | – | 20000 ± 3000 | – | effect on TPA-induced AP-1 activation (AP-1): activated; inhibition of LPS-induced COX-2 mRNA (COX-2 mRNA; 4 μM): about 50%; suppression of LPS-induced COX-2 mRNA (COX-2 mRNA; 20 μM): markedly suppressed; inhibition of TNF-induced activation of NF-κB (literature) (NF-κB [4]): inhibits TNF-induced activation of NF-κB |
| COc1ccc(/C=C/c2cc(OC)cc(OC)c2)cc1 [6f, (E)-3,4′,5-Trimethoxystilbene] | 3800 ± 1100 | – | especially active | – |
